Measured values published in paper PMC8973346, “Dissecting The role of Plasmodium metacaspase-2 in malaria gametogenesis and sporogony” (Emerging Microbes & Infections, 2022).

Target: T1, PfMCA-2 (metacaspase-2) (Plasmodium falciparum, UniProt Q8IL84)
T1 construct: gene MCA2; catalytic domain
Test: fluorogenic Z-GRR-AMC cleavage assay with recombinant enzyme, Michaelis-Menten nonlinear regression
Type: biochemical

T1 sequence (Q8IL84 1650-2020): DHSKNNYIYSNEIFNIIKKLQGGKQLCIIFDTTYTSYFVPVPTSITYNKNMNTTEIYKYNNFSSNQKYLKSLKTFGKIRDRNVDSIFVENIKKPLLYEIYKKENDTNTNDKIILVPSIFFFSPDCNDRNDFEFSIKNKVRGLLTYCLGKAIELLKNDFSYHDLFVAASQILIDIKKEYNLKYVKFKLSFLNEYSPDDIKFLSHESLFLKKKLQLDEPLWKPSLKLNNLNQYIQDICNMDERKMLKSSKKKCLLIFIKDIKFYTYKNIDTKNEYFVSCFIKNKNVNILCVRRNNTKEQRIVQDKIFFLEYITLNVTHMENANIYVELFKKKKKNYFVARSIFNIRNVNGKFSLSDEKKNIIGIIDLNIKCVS

In the case of `CC(C)c1ccc(CNc2ccc3oc(CC4CCCCC4)nc3c2)cc1` [C-532], the Ki is reported as 2.1 ± 0.12 nM.

Work on `CCCc1ccc(CNc2ccc3oc(CC4CCCCC4)nc3c2)cc1` [C-533] yielded a Ki of 1.62 ± 0.22 nM.
